# Literature values in US20180008598A1, “ANTIBACTERIAL NASAL COMPOSITIONS AND RELATED METHODS” (Xlear, Inc., priority 2016, published 2018).
# Tests used:
# Streptococcus pneumonia = details: in vitro, during its logarithmic growth phase
# dental caries = details: regular consumption
smiles,measurement,setting,value
"OC[C@@H](O)[C@H](O)[C@@H](O)CO [Xylitol, xylitol]",growth of Streptococcus pneumonia,Streptococcus pneumonia,inhibit the growth
same,incidence of dental caries,dental caries,reduce the incidence of dental caries
